Data published in patent US9918972B2, “Treatment of leukemia with artemisinin derivatives and combinations with other antineoplastic agents” (UNIVERSITY OF MARYLAND, BALTIMORE, priority 2014, dated 2018).
“And” between values parts separate entries of the source, which are not always exact repeats. Identical values can stand only once. Marks after values point to notes of the source that are not given here.

The compounds below were run on RCH-ACV (assay: Kinase inhibitor drug combination screen (MTS, Bliss-independence analysis)). Settings: Drug 2 = ART-838 at approximate IC50, 48 h.

| Compound | fractional inhibition over Bliss prediction |
| --- | --- |
| O=C(Nc1cccc(C(F)(F)F)c1)Nc1cc(S(=O)(=O)NC2CC2)ccc1-c1ccsc1 [AGI6780] | RCH-ACV (0.11) |
| CCc1cc(Nc2nccc(-c3c(-c4ccc(OC)c(C(=O)Nc5c(F)cccc5F)c4)nc4ccccn34)n2)c(OC)cc1N1CCC(N2CCN(S(C)(=O)=O)CC2)CC1 [GSK-1904529A] | RCH-ACV (0.14) |

Same assay, conditions: Drug 2 = AS at approximate IC50, 48 h

| Compound | fractional inhibition over Bliss prediction |
| --- | --- |
| Cc1c[nH]c(-c2cnc(NCCNc3ccc(C#N)cn3)nc2-c2ccc(Cl)cc2Cl)n1 [CHIR-99021] | RCH-ACV (0.15) |
| C[C@@H](Oc1cc(-c2cnn(C3CCNCC3)c2)cnc1N)c1c(Cl)ccc(F)c1Cl [Crizotinib] | RCH-ACV (0.13) |
| CCc1cc(Nc2nccc(-c3c(-c4ccc(OC)c(C(=O)Nc5c(F)cccc5F)c4)nc4ccccn34)n2)c(OC)cc1N1CCC(N2CCN(S(C)(=O)=O)CC2)CC1 [GSK-1904529A] | RCH-ACV (0.20) |
| Oc1nc(-c2ccc(C(F)(F)F)cc2)nc2c1CSCC2 [XAV-939] | RCH-ACV (0.22) |

The compounds below were run on MOLM14, Kasumi-1, KOPN8 and RCH-ACV leukemia cell lines (assay: Kinase inhibitor drug combination screen, summary over the four leukemia cell lines). Settings: cell lines synergistically inhibited (>10% over Bliss) by drug 1 combined with AS and/or ART-838.

| Compound | No. Cell Lines |
| --- | --- |
| O=C(Nc1cccc(C(F)(F)F)c1)Nc1cc(S(=O)(=O)NC2CC2)ccc1-c1ccsc1 [AGI6780] | 2/4** |
| CC(C)C[C@H](NC(=O)[C@H](Cc1ccccc1)NC(=O)c1cnccn1)B(O)O [Bortezomib] | 2/4 |
| Cc1c[nH]c(-c2cnc(NCCNc3ccc(C#N)cn3)nc2-c2ccc(Cl)cc2Cl)n1 [CHIR-99021] | 2/4 |
| C[C@@H](Oc1cc(-c2cnn(C3CCNCC3)c2)cnc1N)c1c(Cl)ccc(F)c1Cl [Crizotinib] | 2/4** |
| C#Cc1cccc(Nc2ncnc3cc(OCCOC)c(OCCOC)cc23)c1 [Erlotinib] | 2/4 |
| CCc1cc(Nc2nccc(-c3c(-c4ccc(OC)c(C(=O)Nc5c(F)cccc5F)c4)nc4ccccn34)n2)c(OC)cc1N1CCC(N2CCN(S(C)(=O)=O)CC2)CC1 [GSK-1904529A] | 3/4 |
| COc1ccc(COc2ccc(Cc3cnc(N)nc3N)cc2OC)cc1 [GW-2580] | 2/4 |
| O=S(=O)(NCCNC/C=C/c1ccc(Br)cc1)c1cccc2cnccc12 [H-89] | 2/4 |
| Cc1ccc(NC(=O)c2ccc(CN3CCN(C)CC3)cc2)cc1Nc1nccc(-c2cccnc2)n1 [Imatinib] | 2/4 |
| Cn1cc(-c2ccc3nnc(C(F)(F)c4ccc5ncccc5c4)n3n2)cn1 [JNJ-38877605] | 2/4 |
| CS(=O)(=O)CCNCc1ccc(-c2ccc3ncnc(Nc4ccc(OCc5cccc(F)c5)c(Cl)c4)c3c2)o1 [Lapatinib] | 2/4** |
| O=C(O)c1ccc(Nc2ncc3c(n2)-c2ccc(Cl)cc2C(c2c(F)cccc2F)=NC3)cc1 [MLN8054] | 2/4 |
| Nc1ncnc2c1c(-c1cccc(OCc3ccccc3)c1)cn2C1CC(CN2CCCC2)C1 (stereo not drawn) [NVP-ADW742] | 2/4 |
| Cc1ccc(Nc2nccc(N(C)c3ccc4c(C)n(C)nc4c3)n2)cc1S(N)(=O)=O [Pazopanib] | 3/4 |
| Cc1ccc(S(=O)(=O)OCC(=O)Nc2ccc(C(=O)O)c(O)c2)cc1 [S31-201] | 2/4 |
| Cc1[nH]c(/C=C2\C(=O)Nc3ccc(S(=O)(=O)N(C)c4cccc(Cl)c4)cc32)c(C)c1C(=O)N1CCN(C)CC1 [SU11274] | 2/4 |
| Cn1cnc2c(F)c(Nc3ccc(Br)cc3Cl)c(C(=O)NOCCO)cc21 [Selumetinib] | 2/4 |
| COc1cc2nccc(Oc3ccc(NC(=O)Nc4cc(C)on4)c(Cl)c3)c2cc1OC [Tivozanib] | 2/4 |
| O=c1ncn2nc(Sc3ccc(F)cc3F)ccc2c1-c1c(Cl)cccc1Cl [VX-745] | 2/4 |
| Oc1nc(-c2ccc(C(F)(F)F)cc2)nc2c1CSCC2 [XAV-939] | 3/4 |

Same assay, conditions: screens in four human leukemia cell lines

| Compound | synergy with AS or ART-838 |
| --- | --- |
| ABT-263 | Particularly strong synergy |

These compounds were tested on KOPN8 (assay: Kinase inhibitor drug combination screen (MTS, Bliss-independence analysis)). Settings: KOPN8, Drug 2 = ART-838 at approximate IC50, 48 h.

| Compound | fractional inhibition over Bliss prediction |
| --- | --- |
| O=C(Nc1cccc(C(F)(F)F)c1)Nc1cc(S(=O)(=O)NC2CC2)ccc1-c1ccsc1 [AGI6780] | KOPN8 (0.17), |
| C[C@@H](Oc1cc(-c2cnn(C3CCNCC3)c2)cnc1N)c1c(Cl)ccc(F)c1Cl [Crizotinib] | KOPN8 (0.12) |
| CCc1cc(Nc2nccc(-c3c(-c4ccc(OC)c(C(=O)Nc5c(F)cccc5F)c4)nc4ccccn34)n2)c(OC)cc1N1CCC(N2CCN(S(C)(=O)=O)CC2)CC1 [GSK-1904529A] | 0.24 and 0.16 |
| COc1ccc(COc2ccc(Cc3cnc(N)nc3N)cc2OC)cc1 [GW-2580] | KOPN8 (0.19) |
| O=S(=O)(NCCNC/C=C/c1ccc(Br)cc1)c1cccc2cnccc12 [H-89] | KOPN8 (0.10) |
| Cn1cc(-c2ccc3nnc(C(F)(F)c4ccc5ncccc5c4)n3n2)cn1 [JNJ-38877605] | KOPN8 (0.19) |
| Cc1ccc(F)c(NC(=O)Nc2ccc(-c3cccc4[nH]nc(N)c34)cc2)c1 [Linifanib] | 0.19 |
| O=C(O)c1ccc(Nc2ncc3c(n2)-c2ccc(Cl)cc2C(c2c(F)cccc2F)=NC3)cc1 [MLN8054] | KOPN8 (0.11) |
| CC1(C)CNc2cc(NC(=O)c3cccnc3NCc3ccncc3)ccc21 [Motesanib] | 0.15 |
| CS(=O)(=O)N1CCN(Cc2cc3nc(-c4cccc5[nH]ncc45)nc(N4CCOCC4)c3s2)CC1 [Pictilisib] | 0.14 |
| Cc1ccc(S(=O)(=O)OCC(=O)Nc2ccc(C(=O)O)c(O)c2)cc1 [S31-201] | KOPN8 (0.23) |
| Cc1[nH]c(/C=C2\C(=O)Nc3ccc(S(=O)(=O)N(C)c4cccc(Cl)c4)cc32)c(C)c1C(=O)N1CCN(C)CC1 [SU11274] | KOPN8 (0.39) |
| Cn1cnc2c(F)c(Nc3ccc(Br)cc3Cl)c(C(=O)NOCCO)cc21 [Selumetinib] | KOPN8 (0.19) |
| COc1cc2nccc(Oc3ccc(NC(=O)Nc4cc(C)on4)c(Cl)c3)c2cc1OC [Tivozanib] | KOPN8 (0.22) |
| CC(=O)Nc1cccc(-n2c(=O)n(C3CC3)c(=O)c3c(Nc4ccc(I)cc4F)n(C)c(=O)c(C)c32)c1 [Trametinib] | 0.20 |
| O=c1ncn2nc(Sc3ccc(F)cc3F)ccc2c1-c1c(Cl)cccc1Cl [VX-745] | KOPN8 (0.14) |
| Clc1ccc(Nc2nnc(Cc3ccncc3)c3ccccc23)cc1 [Vatalanib] | 0.12 |
| Oc1nc(-c2ccc(C(F)(F)F)cc2)nc2c1CSCC2 [XAV-939] | KOPN8 (0.18) |

Same assay, conditions: KOPN8, Drug 2 = AS at approximate IC50, 48 h

| Compound | fractional inhibition over Bliss prediction |
| --- | --- |
| CCc1cc(Nc2nccc(-c3c(-c4ccc(OC)c(C(=O)Nc5c(F)cccc5F)c4)nc4ccccn34)n2)c(OC)cc1N1CCC(N2CCN(S(C)(=O)=O)CC2)CC1 [GSK-1904529A] | KOPN8 (0.18), |
| COc1ccc(COc2ccc(Cc3cnc(N)nc3N)cc2OC)cc1 [GW-2580] | KOPN8 (0.15) |
| Cn1cc(-c2ccc3nnc(C(F)(F)c4ccc5ncccc5c4)n3n2)cn1 [JNJ-38877605] | KOPN8 (0.12) |
| Cc1ccc(F)c(NC(=O)Nc2ccc(-c3cccc4[nH]nc(N)c34)cc2)c1 [Linifanib] | 0.20 |
| CC1(C)CNc2cc(NC(=O)c3cccnc3NCc3ccncc3)ccc21 [Motesanib] | 0.11 |
| CS(=O)(=O)N1CCN(Cc2cc3nc(-c4cccc5[nH]ncc45)nc(N4CCOCC4)c3s2)CC1 [Pictilisib] | 0.12 |
| Cc1ccc(S(=O)(=O)OCC(=O)Nc2ccc(C(=O)O)c(O)c2)cc1 [S31-201] | KOPN8 (0.17) |
| Cc1[nH]c(/C=C2\C(=O)Nc3ccc(S(=O)(=O)N(C)c4cccc(Cl)c4)cc32)c(C)c1C(=O)N1CCN(C)CC1 [SU11274] | KOPN8 (0.17) |
| COc1cc2nccc(Oc3ccc(NC(=O)Nc4cc(C)on4)c(Cl)c3)c2cc1OC [Tivozanib] | KOPN8 (0.11) |
| CC(=O)Nc1cccc(-n2c(=O)n(C3CC3)c(=O)c3c(Nc4ccc(I)cc4F)n(C)c(=O)c(C)c32)c1 [Trametinib] | 0.20 |
| Clc1ccc(Nc2nnc(Cc3ccncc3)c3ccccc23)cc1 [Vatalanib] | 0.15 |

Each compound was assayed on MOLM14 in the same assay as above. Settings: MOLM14, Drug 2 = ART-838 at approximate IC50, 48 h.

| Compound | fractional inhibition over Bliss prediction |
| --- | --- |
| Cc1c[nH]c(-c2cnc(NCCNc3ccc(C#N)cn3)nc2-c2ccc(Cl)cc2Cl)n1 [CHIR-99021] | MOLM14 (0.53) |
| CCc1cc(Nc2nccc(-c3c(-c4ccc(OC)c(C(=O)Nc5c(F)cccc5F)c4)nc4ccccn34)n2)c(OC)cc1N1CCC(N2CCN(S(C)(=O)=O)CC2)CC1 [GSK-1904529A] | 0.57 and 0.37 |
| COc1ccc(COc2ccc(Cc3cnc(N)nc3N)cc2OC)cc1 [GW-2580] | MOLM14 (0.19), |
| O=S(=O)(NCCNC/C=C/c1ccc(Br)cc1)c1cccc2cnccc12 [H-89] | MOLM14 (0.13), |
| Cn1cc(-c2ccc3nnc(C(F)(F)c4ccc5ncccc5c4)n3n2)cn1 [JNJ-38877605] | MOLM14 (0.17), |
| O=C(O)c1ccc(Nc2ncc3c(n2)-c2ccc(Cl)cc2C(c2c(F)cccc2F)=NC3)cc1 [MLN8054] | MOLM14 (0.15), |
| Nc1ncnc2c1c(-c1cccc(OCc3ccccc3)c1)cn2C1CC(CN2CCCC2)C1 (stereo not drawn) [NVP-ADW742] | MOLM14 (0.17), |
| CCCCCCCCCCCCc1ccc(S(=O)(=O)Nc2nncs2)cc1 [PHT-427] | 0.20 |
| Cc1ccc(S(=O)(=O)OCC(=O)Nc2ccc(C(=O)O)c(O)c2)cc1 [S31-201] | MOLM14 (0.18), |
| NC(=O)c1ccc(-c2nc(-c3ccc4c(c3)OCO4)c(-c3ccccn3)[nH]2)cc1 [SB-431542] | 0.11 |
| Cc1[nH]c(/C=C2\C(=O)Nc3ccc(S(=O)(=O)N(C)c4cccc(Cl)c4)cc32)c(C)c1C(=O)N1CCN(C)CC1 [SU11274] | MOLM14 (0.17), |
| CN1CCN(CCOc2cc(OC3CCOCC3)c3c(Nc4c(Cl)ccc5c4OCO5)ncnc3c2)CC1 [Saracatinib] | 0.21 |
| Cn1cnc2c(F)c(Nc3ccc(Br)cc3Cl)c(C(=O)NOCCO)cc21 [Selumetinib] | MOLM14 (0.15), |
| Oc1nc(-c2ccc(C(F)(F)F)cc2)nc2c1CSCC2 [XAV-939] | MOLM14 (0.17), |
| JAK Inhibitor I | 0.15 |

Same assay, conditions: MOLM14, Drug 2 = AS at approximate IC50, 48 h

| fractional inhibition over Bliss prediction | Compound |
| --- | --- |
| 0.30 and 0.27 | CCc1cc(Nc2nccc(-c3c(-c4ccc(OC)c(C(=O)Nc5c(F)cccc5F)c4)nc4ccccn34)n2)c(OC)cc1N1CCC(N2CCN(S(C)(=O)=O)CC2)CC1 [GSK-1904529A] |
| 0.25 and 0.15 | COc1ccc(COc2ccc(Cc3cnc(N)nc3N)cc2OC)cc1 [GW-2580] |
| MOLM14 (0.21) | O=S(=O)(NCCNC/C=C/c1ccc(Br)cc1)c1cccc2cnccc12 [H-89] |
| MOLM14 (0.27), | Cn1cc(-c2ccc3nnc(C(F)(F)c4ccc5ncccc5c4)n3n2)cn1 [JNJ-38877605] |
| MOLM14 (0.20) | Nc1ncnc2c1c(-c1cccc(OCc3ccccc3)c1)cn2C1CC(CN2CCCC2)C1 (stereo not drawn) [NVP-ADW742] |
| 0.26 | CCCCCCCCCCCCc1ccc(S(=O)(=O)Nc2nncs2)cc1 [PHT-427] |
| MOLM14 (0.30), | Cc1ccc(S(=O)(=O)OCC(=O)Nc2ccc(C(=O)O)c(O)c2)cc1 [S31-201] |

| Compound | fractional inhibition over Bliss prediction |
| --- | --- |
| NC(=O)c1ccc(-c2nc(-c3ccc4c(c3)OCO4)c(-c3ccccn3)[nH]2)cc1 [SB-431542] | 0.16 |
| Cc1[nH]c(/C=C2\C(=O)Nc3ccc(S(=O)(=O)N(C)c4cccc(Cl)c4)cc32)c(C)c1C(=O)N1CCN(C)CC1 [SU11274] | MOLM14 (0.28), |
| CN1CCN(CCOc2cc(OC3CCOCC3)c3c(Nc4c(Cl)ccc5c4OCO5)ncnc3c2)CC1 [Saracatinib] | 0.33 |
| COc1cc2nccc(Oc3ccc(NC(=O)Nc4cc(C)on4)c(Cl)c3)c2cc1OC [Tivozanib] | MOLM14 (0.20), |
| O=c1ncn2nc(Sc3ccc(F)cc3F)ccc2c1-c1c(Cl)cccc1Cl [VX-745] | MOLM14 (0.11) |
| JAK Inhibitor I | 0.44 |
